# Source: patent US5789439A, “Pharmaceutical use of forskolin derivatives” (Nippon Kayaku Kabushiki Kaisha, priority 1990, dated 1998)
# Counter-ions that a name gives are not always drawn.
# Tests used:
# Format in all cases: cell-based
# [1] = tested on: NB-1 cells (a human neuroblastoma strain); experiment: Differentiation inducing effect for NB-1 cells; parameters: key: -: none; ±: slight (<20%); +: medium (20-80%); ++: heavy (>80%); conditions: 4-hour incubation
# Method: The differentiation inducing effect for the NB-1 cells (a human neuroblastoma strain: cell strain derived from neuroblastoma generated in infantile adrenal gland) was examined. The NB-1 cells were applied to a 96-well plate at a rate of 2×10^3 cells/well and precultured for 3 days. After attachment and growth were stabilized, the medium (RPMI 1640+10% fetal calf serum+SM.PC) was exchanged and a 10 μl solution of each test compound was added. Then, the cells were kept under constant observation to determine the occurrence or non-occurrence of differentiation. 2 mM (1.037 mg/ml) of dibutyryl cAMP dissolved in RPMI 1640 was used as positive control. NKH-477 and 14,15-dihydro-6-(3-dimethylaminopropionyl)forskolin hydrochloride were dissolved in a physiological saline. Forskolin was dissolved in DMSO and diluted with a physiological saline. The criterion for judgment of morphological change in differentiation is as follows. The figures in the parentheses are the ratio of the differentiated cells to the whole cells. It was confirmed that DMSO was totally devoid of differentiation inducing and promoting action at the concentrations used in this test.
# [2] = tested on: ADP-induced aggregation of rabbit blood thrombocyte; experiment: ADP-induced platelet aggregation inhibition, rabbit platelet rich plasma; conditions: Oryctolagus cuniculus, rabbit PRP, ADP 3×10^-6 M, mean, n = 5, read-out: Platelet aggregation inhibitory action (IC50), ADP-induced aggregation
# Method: The platelet aggregation inhibitory action of NKH-477 was examined on collagen-induced aggregation and ADP-induced aggregation of rabbit blood thrombocyte. The male Japanese white rabbits (body weight: 2.4-2.8 kg, procured from Tokyo Experimental Animals Co., Ltd.) were divided into groups of 5. The rabbits were etherized and blood was collected from the carotid artery of each rabbit. A 3.8% sodium citrate solution (final concentration: 0.38%) was added to a portion of blood collected from each group of rabbits to obtain platelet rich plasma (PRP). The remaining portion of blood was centrifuged at 3,000 r.p.m. for 15 minutes to obtain platelet poor plasma (PPP). First, permeability of PRP and PPP was determined by using an aggregometer (RMA-31 mfd. by Rika Denki Kogyo K. K.) and set at 0% and 100%, respectively. Separately from the above operation, 250 μl of PRP was placed in a cuvette and after preliminary heating at 37° C. for 2 minutes, 20 μl of specimen was added and incubated under stirring for 2 minutes. Then 10 μl of ADP (Sigma, final conc.: 3×10^-6 M) or collagen (Hormon-Chemie, final conc.: 10 μg/ml) was added and the transmission rate was measured. The maximum transmission rate observed in this operation was termed as the maximum aggregation rate. Recording in this operation was conducted on an ink-written recorder (B-381L mfd. by Rika Denki Kogyo K. K.). […]
# [3] = tested on: collagen-induced aggregation of rabbit blood thrombocyte; experiment: Collagen-induced platelet aggregation inhibition, rabbit platelet rich plasma; conditions: Oryctolagus cuniculus, Platelet; rabbit PRP, collagen 10 μg/ml; mean, n = 5; read-out: Platelet aggregation inhibitory action (IC50), Collagen-induced aggregation
# Method: The platelet aggregation inhibitory action of NKH-477 was examined on collagen-induced aggregation and ADP-induced aggregation of rabbit blood thrombocyte. The male Japanese white rabbits (body weight: 2.4-2.8 kg, procured from Tokyo Experimental Animals Co., Ltd.) were divided into groups of 5. The rabbits were etherized and blood was collected from the carotid artery of each rabbit. A 3.8% sodium citrate solution (final concentration: 0.38%) was added to a portion of blood collected from each group of rabbits to obtain platelet rich plasma (PRP). The remaining portion of blood was centrifuged at 3,000 r.p.m. for 15 minutes to obtain platelet poor plasma (PPP). First, permeability of PRP and PPP was determined by using an aggregometer (RMA-31 mfd. by Rika Denki Kogyo K. K.) and set at 0% and 100%, respectively. Separately from the above operation, 250 μl of PRP was placed in a cuvette and after preliminary heating at 37° C. for 2 minutes, 20 μl of specimen was added and incubated under stirring for 2 minutes. Then 10 μl of ADP (Sigma, final conc.: 3×10^-6 M) or collagen (Hormon-Chemie, final conc.: 10 μg/ml) was added and the transmission rate was measured. The maximum transmission rate observed in this operation was termed as the maximum aggregation rate. Recording in this operation was conducted on an ink-written recorder (B-381L mfd. by Rika Denki Kogyo K. K.). NKH-477 was dissolved in a physiological saline to make concentrations of 10^-8 to 10^-5 M. Forskolin dissolved in ethanol was used as control.
SMILES,Effect (differentiation inducing) ([1]; Dose 1.56 μM),Effect (differentiation inducing) ([1]; Dose 6.25 μM),Effect (differentiation inducing) ([1]; Dose 25.00 μM),Effect (differentiation inducing) ([1]; Dose 100.00 μM),Effect (differentiation inducing) ([1]; Dose 2000.0 μM),IC50 [2] [µM],IC50 [3] [µM]
"CC[C@@]1(C)CC(=O)[C@]2(O)[C@@]3(C)[C@@H](O)CCC(C)(C)[C@@H]3[C@H](OC(=O)CCN(C)C)[C@H](OC(C)=O)[C@@]2(C)O1 [14,15-dihydro-6-(3-dimethylaminopropionyl)forskolin hydrochloride]",± (slight (<20%)),± (slight (<20%)),++ (heavy (>80%)),++ (heavy (>80%)),,,
"CCCC(=O)Nc1ncnc2c1ncn2[C@@H]1O[C@@H]2COP(=O)(O)O[C@H]2[C@H]1OC(=O)CCC [Dibutyryl cAMP, dibutyryl cAMP, reference compound]",,,,,+ (medium (20-80%)),,
C=C[C@@]1(C)CC(=O)[C@]2(O)[C@@]3(C)[C@@H](O)CCC(C)(C)[C@@H]3[C@H](O)[C@H](OC(C)=O)[C@@]2(C)O1 [Forskolin],-,-,± (slight (<20%)),+ (medium (20-80%)),,6.03,3.09
